Holding throughout (format): cell-based, human
For series [1], the system named is ribosomal proteins. The series is described as follows: Mass spectrometry of acetylated ribosomal proteins in polysome pellets. The note with it: SKBR3 cells, TSA 1 μM, 2 h or 6 h. How it is done:
Previous studies have shown that pan-inhibitors of class I and II histone deacetylases, like TSA, can rapidly destabilize a number of oncogenic transcripts including HER2 in a cycloheximide-dependent manner (FIG. 9). […] Thus, SKBR3 cells were treated with TSA to evaluate polysome protein acetylation and determine if, similar to RPL24 depletion, histone deacetylase inhibition can affect ribosome assembly dynamics. To detect early (2 h) ribosome or polysome acetylation following histone deacetylase inhibition treatment (1 μM TSA), SKBR3 polysomes were isolated using a discontinuous sucrose gradient as previously described. […]
To prepare polysome samples for mass spectrometry, cells are treated with a histone deacetylase inhibitor and polysome pellets are prepared using a discontinuous sucrose gradient as described above. Protein concentration is determined using the Pierce BCA Protein Assay Kit (Thermo Scientific) and equal amount of protein are trypsin digested. […]
Three biological replicates of polysome or 60S samples are then analyzed by LC-MS/MS using a quadrupole time-of-flight (QqTOF) TripleTOF 5600 mass spectrometer (AB SCIEX, Dublin, Calif.) coupled to an Eksigent (Dublin, Calif.) nanoLC Ultra, 2D plus. […] Quantitative data analysis of acetyl-lysine peptides is performed by integration of selected molecular ion intensities using Skyline MS1 Filtering as previously described. […]

Series [2] deals with SKBR3 cells. Nature of the series: Polysome profiling and western blot of 60S fractions. Particulars: TSA 1 μM, 2 h. As to the method: Since RPL24 depletion decreased the levels of three cap-dependently translated proteins, the impact of RPL24 knockdown on overall ribosome and polysome formation in these cells was evaluated. Polysome profiling, which utilizes continuous sucrose gradient fractionation to separate free 40S and 60S ribosomal subunits, 80S ribosomes, and polysomes (two or more ribosomes on one mRNA) was used. […] This observed increase in 40S and 60S subunits relative to 80S ribosomes implies a defect in 40S-60S joining induced by the RPL24 knockdown. Since eIF6 bound to the pre-60S subunit prevents joining of the 40S and 60S subunits and occurs adjacent to RPL24 on 60S (FIG. 3c), immunoblotting on all 60S-containing polysome fractions to evaluate the impact of RPL24 knockdown on eIF6 retention was performed. […] Associated with the observed 60S loss of RPL24 was a striking increase in 60S-associated eIF6 (FIG. 3d). To rule out the possibility that the observed 60S retention of eIF6 might be a false-positive or non-specific artifact of lentiviral expressed RPL24 shRNA, a functionally deficient truncation mutant of RPL24 that eliminates the last 17 amino acids was overexpressed. Polysome profiling of 293T cells expressing intact versus truncated RPL24 protein confirmed that truncated RPL24 can induce 60S retention of eIF6 (FIG. 8).
Polysome profiles to separate the 40S, 60S, 80S and polysomes are carried out by layering cell lysates over a continuous 10-50% sucrose gradient and spun at 38,000 rpm for 2 h as previously described. Fractions are collected using a Retriever 500 fraction collector with a UV (UA6) detector (ISCO Teledyne (Lincoln, Nebr.)).
FIG. 3: RPL24 knockdown reduces 80S and polysome assembly while increasing 60S retention of eIF6. […] (a) Western blots using the indicated antibodies were performed on total cell lysates to assess knockdown efficiency. (b) Lysates were applied to a continuous sucrose gradient (10-50%) and ultracentrifugation followed by fractionation was performed to separate ribosomal subunits and polysomes. […]

For series [3], the system named is HER2 mRNA. The series is described as follows: Northern blot of HER2 transcript levels. The note with it: SKBR3 cells, TSA 1 μM, 6 h. How it is done:
Previous studies have shown that pan-inhibitors of class I and II histone deacetylases, like TSA, can rapidly destabilize a number of oncogenic transcripts including HER2 in a cycloheximide-dependent manner (FIG. 9). […] Thus, SKBR3 cells were treated with TSA to evaluate polysome protein acetylation and determine if, similar to RPL24 depletion, histone deacetylase inhibition can affect ribosome assembly dynamics. To detect early (2 h) ribosome or polysome acetylation following histone deacetylase inhibition treatment (1 μM TSA), SKBR3 polysomes were isolated using a discontinuous sucrose gradient as previously described. […] Mass spectrometry studies indicate that 15 ribosomal proteins, 11 large subunit proteins (RPL24 included) and 4 small subunit proteins, underwent at least a two-fold induction in acetylation following 2 h or 6 h TSA treatment (1 μM) (FIG. 4b, FIG. 10a-q).
Cells are harvested and RNA is extracted using Trizol (Life Technologies) per manufacturer's protocol. Northern blots are performed as previously described. Briefly, RNA is then electrophoresed into 1% agarose-formaldehyde gels and transferred onto PVDF membranes. Membranes are then hybridized with ^32P-labelled cDNA probes for HER2 or GAPDH, washed, and visualized by autoradiography.
SKBR3 cells were treated with TSA (1 μM, 6 h) and/or cycloheximide (CX, 50 μg/ml, 6 h) or with the respective vehicle controls. […]

For `CC(/C=C/C(=O)NO)=C\[C@@H](C)C(=O)c1ccc(N(C)C)cc1` [TSA, trichostatin-A], the “number of ribosomal proteins with at least a two-fold induction in acetylation” value in series [1] was determined as 15. In series [2], the “60S RPL24 levels” value is recorded as “without reducing”; the “60S retention of eIF6” value is recorded as “increasing”; the “80S and polysome assembly” value is “reduced”. The “HER2 mRNA decay” value in series [3] was “TSA-induced HER2 mRNA decay”.
